{"source": "paper PMC9598407", "about": "“Identification of Staphylococcus aureus Penicillin Binding Protein 4 (PBP4) Inhibitors” (Antibiotics, 2022)", "key": {"S. aureus strain USA300": {"system": "S. aureus strain USA300", "experiment": "microbe, parasite or virus in culture", "assay_type": "cell-based", "details": "Staphylococcus aureus, USA300, read-out: Ceftobiprole resistance (MIC) in the presence of compound", "procedure": "Fractional inhibitory testing was performed in checkerboard format to determine whether putative PBP4 inhibitors potentiated the antimicrobial effects of β-lactams toward S. aureus strains USA300 and CRB, as previously described. To do so, in triplicate 10^5 CFU of each strain (10 µL) was added to individual wells of a microtiter plate containing 90 µL MH media. […] Plates were incubated at 37 °C for 16–20 h and the lowest concentration of each test agent that inhibited bacterial growth alone or in combination was determined by the naked eye. The fractional inhibitory concentration (FIC) index was calculated using the formula: FIC of A (MIC of drug A in combination/MIC of drug A alone) + FIC B ([…]/MIC of drug B alone). A synergistic interaction was defined as a FICI value of less than 0.5, an additive interaction was defined as a FICI value between 0.5 and 1.0, an indifferent interaction was defined as a FICI value between 1.0 and 4.0, and an antagonistic interaction was defined as a FICI value of more than 4.0 [46]."}, "S. aureus USA300": {"system": "S. aureus USA300", "experiment": "Triton X-100 susceptibility growth study", "assay_type": "cell-based, Staphylococcus aureus", "details": "wild type USA300, 12.5 µM compound", "description": "Cheung and colleagues have shown that S. aureus tolerance to Triton X-100 is mediated by PBP4 [25]. More directly, wild type cells are tolerant of 0.1% of the detergent, while pbp4 mutant cells are not. Accordingly, as a first test of whether 9314848 may affect PBP4’s cellular function, we evaluated whether compound treated wild type cells phenocopy the growth defect of pbp4 mutant cells in the presence of 0.1% triton X-100 (Figure 3B).\nThe effect of putative PBP4 inhibitors on bacterial growth in media supplemented with Triton X-100 was measured, as previously described. […] Cell suspensions were incubated at 37 °C with aeration and cell density (OD600nm) was recorded hourly for a total of 7–8 h."}, "[1]": {"target": "recombinant Bacillus subtilis PBP4 (Bacillus subtilis, UniProt P40750)", "sequence (P40750 22-624)": "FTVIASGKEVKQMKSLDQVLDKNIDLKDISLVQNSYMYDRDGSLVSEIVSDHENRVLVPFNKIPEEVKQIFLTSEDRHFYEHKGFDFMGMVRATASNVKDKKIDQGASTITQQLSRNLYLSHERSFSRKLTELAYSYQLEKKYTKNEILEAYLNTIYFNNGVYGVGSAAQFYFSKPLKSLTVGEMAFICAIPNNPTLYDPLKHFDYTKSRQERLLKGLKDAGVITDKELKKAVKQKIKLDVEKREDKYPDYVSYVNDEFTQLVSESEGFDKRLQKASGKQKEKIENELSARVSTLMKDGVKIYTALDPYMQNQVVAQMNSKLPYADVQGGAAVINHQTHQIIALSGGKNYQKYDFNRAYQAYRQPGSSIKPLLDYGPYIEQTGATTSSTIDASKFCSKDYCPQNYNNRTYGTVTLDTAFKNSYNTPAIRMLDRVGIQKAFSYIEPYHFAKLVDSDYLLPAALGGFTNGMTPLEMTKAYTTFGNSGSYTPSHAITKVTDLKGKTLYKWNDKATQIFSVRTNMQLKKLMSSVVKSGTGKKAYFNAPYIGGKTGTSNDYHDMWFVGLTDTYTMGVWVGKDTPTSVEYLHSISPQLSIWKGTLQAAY", "experiment": "BOCILLIN FL fluorescence polarization displacement assay, PBP4", "assay_type": "binding", "procedure": "To more directly evaluate whether 9314848 is likely to affect PBP4 function, the compound’s ability to bind recombinant PBP4 was measured using BOCILLIN FL fluorescence polarization displacement assays. The premise for the assay is that the fluorescence polarization of the fluorescently labeled β-lactam, penicillin V (BOCILLIN FL), will increase upon binding to its cognate target (i.e., PBP4). Further, compounds that bind PBP4 and inhibit its function would impede BOCILLIN FL binding thereby allowing us to assess the protein binding affinity of 9314848 using a simple fluorescence reduction assay.\nTo determine whether the assay is amenable to measuring the binding properties of a compound that is known to bind PBP4 vs. a compound that is not expected to bind the protein we performed fluorescence polarization assays in which PBP4 was preincubated with either the β-lactam ampicillin, or the aminoglycoside kanamycin.\nA dose response study was conducted (Figure 4B) in which PBP4 was preincubated with 0, 3.125, 6.25, 12.5, 25, or 50 µM of ampicillin, kanamycin, or 9314848.\nFirst, fluorescence polarization assays were performed as previously described, but with minor modifications. Briefly, the indicated amount of the putative PBP4 inhibitor or control antibiotic was incubated with 1 µM recombinant B. subtilis PBP4 or S. aureus PBP2a in potassium phosphate buffer (40 mM K2HPO4 and 10 mM KH2PO4) for 1 h in black 96-well microtiter plates (Corning Life Sciences, Corning, NY, USA). Following incubation, 1 µM (final concentration) BOCILLIN FL penicillin was added, and the mixture was incubated for 30 min. BOCILLIN FL fluorescence polarization was measured at (495 nm excitation and 545 nm emission) in a SpectraMax M5 multimode plate reader (Molecular Devices, San Jose, CA, USA). […] The resulting data were plotted as percentage BOCILLIN FL binding inhibition = (T/U) × 100; T = FL polarization of ((PBP4+ BOCILLIN FL) − (PBP4+ BOCILLIN FL + inhibitor compound)), U = FL polarization of ((PBP4 + BOCILLIN FL) − (BOCILLIN FL)). Second, gel electrophoresis and fluorescence detection was used to measure BOCILLIN FL labeling of PBP4 treated with the known PBP4 inhibitor cefoxitin (positive control), kanamycin (negative control) or 9314848 (test compound), as previously described but with minor modifications. Briefly, 1 µM of recombinant PBP4 was mixed with 0, 50, 500, 2000, or 5000 µM 9314848 or control antibiotic in 50 mM phosphate buffer (pH 7.4) and incubated at 37 °C for 30 min. Next 40 μM of BOCILLIN FL was added to the reaction mixture and incubated for an additional 30 min at 37 °C. Reactions were stopped by adding 5× SDS-PAGE gel loading dye, heated at 100 °C for 3 min and separated by electrophoresis in 12% SDS-PAGE (2 h, 120 Volts). BOCILLIN FL labeled PBP4 was imaged at λ = 365 nm using a BioRad Gel Doc EZ Imaging system and the gel was then subsequently stained with Bio-safe Coomassie Brilliant Blue stain (BioRad, Hercules, CA, USA) to measure the amount of protein present in each reaction condition and analyzed using NIH-ImageJ software. The percent BOCILLIN FL binding was calculated by first normalizing the protein present in each reaction condition to that of untreated control and subsequently applying each reaction’s protein normalization factor to each reaction’s fluorescent signal. The percentage BOCILLIN FL binding inhibition was then calculated as the normalized band intensity of antibiotic/compound treated sample as compared to the control sample (PBP4 + BOCILLIN FL in the absence of compound)."}}, "data": [{"molecule": "CC1CCN(C(=O)c2cccc(NC(=O)Nc3ccc(Cl)cc3)c2)CC1", "note": "[Compound 9314848]", "values": [{"measurement": "MIC", "setting": "S. aureus strain USA300", "value": 0.25, "unit": "mg/L"}, {"measurement": "Growth in the presence of Triton X-100", "setting": "S. aureus USA300; 0.1% Triton X-100", "value": "exhibited growth defect"}, {"measurement": "Growth in the absence of detergent", "setting": "S. aureus USA300; no Triton X-100", "value": "did not display a growth defect"}, {"measurement": "Binding to PBP4 at low concentration", "setting": "[1]; 3.125 µM and 6.25 µM", "value": "Minimal binding"}, {"measurement": "Reduction of BOCILLIN FL binding to PBP4", "setting": "[1]; 50 µM compound, fluorescence polarization", "value": "~ 66%"}, {"measurement": "Effect of preincubation on BOCILLIN FL binding to PBP4 (fluorescence polarization)", "setting": "[1]; 50 µM, 1 µM PBP4", "value": "limited fluorescence polarization"}, {"measurement": "IC50", "setting": "[1]; fluorescence polarization dose response 0-50 µM, read-out: IC50, PBP4 BOCILLIN FL binding inhibition", "value": 13.4, "unit": "µM"}]}]}
